{"source": "patent US8623415B2", "about": "“Method for producing biologically ingestible microparticles, biologically ingestible microparticles, and dispersion and pharmaceutical composition containing the same” (M. Technique Co., Ltd., priority 2007, dated 2014)", "origin": "cited, not measured here", "key": {"[1]": {"conditions": "dissolved in an aqueous solution of pH 6 or higher"}}, "note": "Like-named read-outs stand apart in the source and are kept apart here."}
{"smiles": "C#C[C@]1(O)CC[C@H]2[C@@H]3CCC4=Cc5oncc5C[C@]4(C)[C@H]3CC[C@@]21C", "note": "[danazol, 17-α-pregno-2,4-diene-20-ino-[2,3-d]-isoxazol-17-ol (danazol)]", "values": [{"measurement": "biological availability (BA)", "setting": "commercial product (average particle diameter 10 μm) administered to a dog as a suspension", "result": 5.1, "unit": "%"}, {"measurement": "biological availability (BA)", "setting": "nano-suspension, average particle diameter 169 nm, dog", "result": 82.3, "unit": "%"}]}
{"smiles": "O=C(O)c1cc(O)c2c3nc4ccccc4oc-3cc(=O)c2n1", "note": "[pirenoxine]", "values": [{"measurement": "stability in aqueous solution", "setting": "[1]", "result": "hydrolyzed"}]}
